Results taken from publication PMC9134086, “Inhibition of Dipeptidyl Peptidase-4 by Flavonoids: Structure–Activity Relationship, Kinetics and Interaction Mechanism” (Frontiers in Nutrition, 2022).
“And” between values parts separate entries of the source, which are not always exact repeats. Equal entries are not always repeated.

Experiments:
[1] = target: T1, DPP-4 (human recombinant) (Homo sapiens, UniProt P27487); assay: In vitro assay for DPP-4 inhibitory activity (fluorescence, Gly-Pro-AMC); type: biochemical; conditions: for inhibition at 200 µM / % Inhibition at 200μM: flavonoid 200 μM, mean ± SD, three independent experiments; for inhibition at 200 µM: read-out: % Inhibition at 200μM; for IC50: DPP-4 inhibition, fluorescence method;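 as to all read-outs here: fluorescence of released AMC (excitation 360 nm, emission 460 nm) followed kinetically over 30 min at 37 °C in Tris-HCl pH 8.0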
T1 construct: purchased Sigma Aldrich D3446
T1 sequence (P27487 whole entry): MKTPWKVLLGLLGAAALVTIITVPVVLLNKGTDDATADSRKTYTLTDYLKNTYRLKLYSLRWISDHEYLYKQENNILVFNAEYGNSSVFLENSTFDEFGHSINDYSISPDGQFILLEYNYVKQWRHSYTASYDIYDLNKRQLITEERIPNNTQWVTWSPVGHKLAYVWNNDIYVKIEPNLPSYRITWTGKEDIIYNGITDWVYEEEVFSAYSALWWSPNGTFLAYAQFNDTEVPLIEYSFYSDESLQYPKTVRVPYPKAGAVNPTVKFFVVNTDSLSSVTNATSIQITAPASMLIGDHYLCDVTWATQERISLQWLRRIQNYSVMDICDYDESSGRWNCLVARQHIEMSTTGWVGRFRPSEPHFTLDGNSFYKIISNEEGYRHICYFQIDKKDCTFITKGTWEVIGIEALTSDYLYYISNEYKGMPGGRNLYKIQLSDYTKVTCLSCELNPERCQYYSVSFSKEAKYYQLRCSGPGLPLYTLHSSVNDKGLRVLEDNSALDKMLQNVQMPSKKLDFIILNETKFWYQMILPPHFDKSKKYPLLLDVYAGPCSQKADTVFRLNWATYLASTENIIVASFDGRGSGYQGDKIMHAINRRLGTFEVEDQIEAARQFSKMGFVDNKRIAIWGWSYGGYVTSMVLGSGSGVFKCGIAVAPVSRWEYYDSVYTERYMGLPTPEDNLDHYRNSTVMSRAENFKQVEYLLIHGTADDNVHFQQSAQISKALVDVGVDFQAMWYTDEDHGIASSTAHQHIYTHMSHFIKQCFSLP

DPP-4 [2] = system: DPP-4; set-up: method as in PMID 31441917; conditions: test concentration of 200 μM; cited from earlier work
[3] = target: T1, DPP-4 (human recombinant); assay: Inhibition kinetic analysis (V vs [DPP-4], Lineweaver-Burk, Dixon and Cornish-Bowden plots); type: biochemical; conditions: for Kiu (uncompetitive inhibition constant): Cornish-Bowden equation; for Inhibition type: Lineweaver-Burk, Dixon and Cornish-Bowden plots, Gly-Pro-AMC 50–200 μM, DPP-4 0.42 mU/mL; for reversibility of the inhibition: plots of V vs [DPP-4] 0.21–0.84 mU/mL, 200 μM Gly-Pro-AMC; for Ki: Dixon equation, read-out: Kic (competitive inhibition constant); for 1/Kiu: reciprocal of uncompetitive inhibition constant
[4] = target: T1, DPP-4 (human recombinant); assay: Fluorescence quenching experiments (Stern-Volmer, binding constant, thermodynamic parameters); conditions: for Kq (quenching rate constant): τ0 10^−8 s; for ΔH (enthalpy change) / ΔS (entropy change): from Kb at 298 and 310 K;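 as to all read-outs here: intrinsic DPP-4 fluorescence emission scanned 290–500 nm, corrected for flavonoid background and inner-filter absorbance, compared without versus with flavonoid quencher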
DPP-4 [5] = system: DPP-4; set-up: method as in PMID 33063510; conditions: different DPP-IV inhibitor screening assay kit; cited from earlier work

Row | SMILES | inhibition at 200 µM [1] | inhibitory percentage (DPP-4 [2]) | % Inhibition at 200μM [1] | Kiu (uncompetitive inhibition constant) [3] | Inhibition type [3] | reversibility of the inhibition [3] | KSV (Stern-Volmer quenching constant) ([4]; 298 K) | n (number of binding sites) ([4]; 298 K) | ΔG (Gibbs free-energy change) ([4]; 298 K) | Kq (quenching rate constant) ([4]; 298 K) | KSV (Stern-Volmer quenching constant) ([4]; 310 K) | n (number of binding sites) ([4]; 310 K) | Kq (quenching rate constant) ([4]; 310 K) | ΔH (enthalpy change) [4] | ΔS (entropy change) [4] | IC50 [1] | Ki [3] | further results
1 | O=c1cc(-c2ccc(O)cc2)oc2cc(O)cc(O)c12 [A1, Apigenin] | 46.4 ± 1.49% | 44 ± 2% |  |  |  |  |  |  |  |  |  |  |  |  |  |  |  | 
2 | O=C1C[C@@H](c2ccc(O)cc2)Oc2cc(O)cc(O)c21 [C6, Naringenin] | < 10% | lower than 20% |  |  |  |  |  |  |  |  |  |  |  |  |  |  |  | 
3 | O=C1c2c(O)cc(O)cc2OC(c2ccc(O)c(O)c2)C1O (stereo not shown) [C8, Taxifolin] | 19.9 ± 0.65% | lower than 20% |  |  |  |  |  |  |  |  |  |  |  |  |  |  |  | 
4 | O=c1c(O[C@@H]2O[C@H](CO)[C@H](O)[C@H](O)[C@H]2O)c(-c2ccc(O)c(O)c2)oc2cc(O)cc(O)c12 [E4, Hyperoside] | > 50% |  | 62.10 ±0.16% | 14.8 ± 0.22 10^−5 mol L^−1 | Mixed | reversible | 4.83 ± 0.01 ×10^4 L mol^−1 | 1.04 ± 0.02 | -6.6334 kcal/mol | 4.83 ± 0.01 ×10^12 L mol^−1 s^−1 | 4.08 ± 0.01 ×10^4 L mol^−1 | 1.03 ± 0.02 | 4.08 ± 0.01 ×10^12 L mol^−1 s^−1 | -3.3815 kcal/mol | 45.66 J mol^−1K^−1 |  |  | ΔG (Gibbs free-energy change) ([4]; 310 K): -6.7641 kcal/mol
5 | COc1cc(-c2oc3cc(O)cc(O)c3c(=O)c2O[C@@H]2O[C@H](CO[C@@H]3O[C@@H](C)[C@H](O)[C@@H](O)[C@H]3O)[C@@H](O)[C@H](O)[C@H]2O)ccc1O [E21, Narcissoside] | > 50% |  | 57.50 ±1.28% | 22.3 ± 0.15 10^−5 mol L^−1 | Mixed | reversible | 7.212 ± 0.01 ×10^4 L mol^−1 | 1.22 ± 0.02 | -8.059 kcal/mol | 7.212 ± 0.01 ×10^12 L mol^−1 s^−1 | 6.389 ± 0.01 ×10^4 L mol^−1 | 1.21 ± 0.02 | 6.389 ± 0.01 ×10^12 L mol^−1 s^−1 | -1.937 kcal/mol | 85.93 J mol^−1K^−1 | 167 µM and < 200 µM | 116 ± 2.1 µM | 1/Kic ([3]; reciprocal of competitive inhibition constant): 0.86 ± 0.02 10^4 L mol^−1; 1/Kiu [3]: 0.44 ± 0.03 10^4 L mol^−1; ΔG (Gibbs free-energy change) ([4]; 310 K): -8.305 kcal/mol
6 | O=c1c(O)c(-c2ccc(O)c(O)c2)oc2cc(O)cc(O)c12 [E23, Quercetin] | 39.4 ± 0.58% | 46 ± 2% |  |  |  |  |  |  |  |  |  |  |  |  |  |  |  | inhibitory percentage relative to rhamnetin (E27) ([1]; ratio of % inhibition at 200 μM, quercetin vs rhamnetin): 1.77 times
7 | OCC1OC(Oc2cc3c(O)cc(O)cc3[o+]c2-c2ccc(O)c(O)c2)C(O)C(O)C1O (stereo not shown) [F2, Cyanidin 3-O-glucoside chloride] | > 50% |  | 68.05 ±0.15% | 18.37 ± 0.24 10^−5 mol L^−1 | Mixed | reversible | 3.64 ± 0.04 ×10^4 L mol^−1 | 1.05 ± 0.01 | -6.577 kcal/mol | 3.64 ± 0.04 ×10^12 L mol^−1 s^−1 | 3.08 ± 0.06 ×10^4 L mol^−1 | 1.04 ± 0.01 | 3.08 ± 0.06 ×10^12 L mol^−1 s^−1 | -1.971 kcal/mol | 64.68 J mol^−1K^−1 | 81.1 ± 4.14 µM | 74.3 ± 1.2 µM | inhibitory percentage relative to cyanidin (F1) ([1]; ratio of % inhibition at 200 μM, cyanidin 3-O-glucoside vs cyanidin): 3.62 times; 1/Kiu [3]: 0.57 ± 0.03 10^4 L mol^−1; IC50 (DPP-4 [5]): 8.26 µM
8 | O=C(/C=C/c1ccc(O)cc1)c1ccc(O)cc1O [G1, Isoliquiritigenin] | > 50% |  |  | 26.7 ± 0.34 10^−5 mol L^−1 |  |  |  |  |  |  |  |  |  | -1.901 kcal/mol |  | 150 µM and < 200 µM | 98.2 ± 3.4 µM | 
